The text below walks through data of ChEMBL document CHEMBL1126967, “Synthetic pterocarpans with anti-HIV activity” (Bioorg Med Chem Lett, 1993).

Assay [1] has as its system CCRF-CEM. Put plainly: Compound tested in Vitro for inhibition of cytopathic activity of HIV-1 on T4 lymphocytes (CEM cells). In kind it is functional, cell-based. The following applies: Homo sapiens.
In assay [2] the test system is CCRF-CEM. As to the kind of experiment: Compound tested in Vitro for inhibition of cytopathic activity of HIV-1 on T4 lymphocytes (CEM cells); Inactive. In kind it is functional, cell-based, Homo sapiens. For orientation: Cytopathic effects are the visible damage that an infection or toxin causes in cultured cells.
Assay [3] relates to CCRF-CEM. Put plainly: Compound tested in vitro for inhibition of cytopathic activity of AZT-sensitive HIV-1 on T4 lymphocytes (CEM cells). In kind it is functional, cell-based. The note with it: Homo sapiens.
Assay [4] deals with CCRF-CEM. Put plainly: Compound tested in vitro for inhibition of cytopathic activity of AZT-resistant HIV-1 on T4 lymphocytes (CEM cells). In kind it is functional, cell-based. The following applies: Homo sapiens.
Assay [5] deals with CCRF-CEM. As to the kind of experiment: Compound tested in vitro for inhibition of cytopathic activity of AZT-sensitive HIV-2 on T4 lymphocytes (CEM cells): IA denotes inactive. Format: functional, cell-based, Homo sapiens.
In assay [6] the test system is CCRF-CEM. Put plainly: Compound tested in vitro for inhibition of cytopathic activity of AZT-resistant HIV-2 on T4 lymphocytes (CEM cells): IA denotes inactive. Format: functional, cell-based, Homo sapiens.
Assay [7] relates to CCRF-CEM. As to the kind of experiment: Compound tested in vitro for inhibition of cytopathic activity of AZT-resistant SIV on T4 lymphocytes (CEM cells): IA denotes inactive. In kind it is functional, cell-based, Homo sapiens.
In assay [8] the test system is CCRF-CEM. Put plainly: Compound tested in vitro for inhibition of cytopathic activity of Merck-resistant variant of AZT-resistant HIV-l (A17) on T4 lymphocytes (CEM cells): IA denotes inactive. In kind it is functional, cell-based, Homo sapiens.
In assay [9] the test system is CCRF-CEM. Put plainly: Compound tested in vitro for inhibition of cytopathic activity of HIV-1 on T4 lymphocytes (CEM cells). In kind it is functional, cell-based. The note with it: Homo sapiens.
Assay [10] relates to CCRF-CEM. As to the kind of experiment: Compound tested in vitro for inhibition of cytopathic activity of Merck-resistant variant of AZT-sensitive HIV-l (A17) on T4 lymphocytes (CEM cells): IA denotes inactive. In kind it is functional, cell-based, Homo sapiens.
Assay [11] concerns CCRF-CEM. Put plainly: Compound tested in vitro for inhibition of cytopathic activity of AZT-sensitive SIV on T4 lymphocytes (CEM cells): IA denotes inactive. Format: functional, cell-based, Homo sapiens.

As usually defined, the EC50 is the concentration needed to bring the measured effect to its halfway point. Read a high EC50 as lower potency in that assay. Broadly, the IC50 is the concentration that inhibits the measured activity by half. In the assay with CCRF-CEM [1], `COc1ccc2c(c1)OCC1c3cc(O)c(OCC(C)C)cc3OC21` (stereo not given) yielded an EC50 of 2.28 µM and an IC50 of 24.5 µM.

`COc1ccc2c(c1)OCC1c3cc(CC=C(C)C)c(OCc4ccccc4)cc3OC21` (stereo not given): in the assay with CCRF-CEM [2], the half-maximal effective concentration (EC50) result is “Not Active” and the IC50 entry is given as “Not Active”.

Take `COc1cc2c(cc1O)C1COc3ccccc3C1O2` (stereo not given): in the assay on CCRF-CEM [2], the EC50 entry is “Not Active” and the half-maximal inhibitory concentration (IC50) result is listed as “Not Active”.

For the compound `COc1ccc2c(c1)OCC1c3cc(O)c(OCC4CCCCC4)cc3OC21` (stereo not given), in the assay on CCRF-CEM [1], the EC50 is 1.46 µM and the concentration for half-maximal inhibition (IC50) stood at 22.2 µM.

In the assay on CCRF-CEM [1], `COc1ccc2c(c1)OCC1c3cc(OC)c(OCc4ccccc4)cc3OC21` (stereo not given) returned a 50% effective concentration (EC50) of 5.7 µM and an IC50 of 69.4 µM.

On to `COC(=O)c1c(O)ccc2c1C1COc3ccccc3C1O2` (stereo not given), for which, in the assay with CCRF-CEM [2], the EC50 entry is listed as “Not Active” and the IC50 result is “Not Active”.

In the assay with CCRF-CEM [1], `COc1ccc2c(c1)OCC1c3cc(O)c(OCc4ccc5ccccc5c4)cc3OC21` (stereo not given) had an EC50 of 3.35 µM and an IC50 of 34.2 µM.

Consider `COc1ccc2c(c1)OC1c3ccc(OC)cc3OCC21` (stereo not given), for which, in the assay on CCRF-CEM [2], the EC50 entry is listed as “Not Active” and the IC50 entry is on record as “Not Active”.

In the assay with CCRF-CEM [1], `COc1ccc2c(c1)OCC1c3ccc(OCc4ccccc4)cc3OC21` (stereo not given) yielded an EC50 of 31.2 µM and an IC50 of 200 µM.

In the case of `COc1cc2c(c(C)c1O)C1COc3ccccc3C1O2` (stereo not given), in the assay with CCRF-CEM [2], the EC50 result was “Not Active” and the IC50 entry is recorded as “Not Active”.

As for `COc1ccc2c(c1)OCC1c3cc(O)c(OCc4cccc5ccccc45)cc3OC21` (stereo not given), in the assay on CCRF-CEM [1], the midpoint of the response, the EC50, lay at 0.43 µM and the concentration for half-maximal inhibition (IC50) was 38.5 µM.

Regarding `COc1ccc2c(c1)OCC1c3cc4c(cc3OC21)OCO4` (stereo not given), in the assay on CCRF-CEM [2], the half-maximal effective concentration (EC50) result is recorded as “Not Active” and the half-maximal inhibitory concentration (IC50) result is reported as “Not Active”.

On to `COC(=O)c1c(O)ccc2c1C1COc3cc(OC)ccc3C1O2` (stereo not given), for which, in the assay with CCRF-CEM [2], the 50% effective concentration (EC50) entry was “Not Active” and the concentration for half-maximal inhibition (IC50) result is on record as “Not Active”.

As to `COc1ccc2c(c1)OCC1c3cc(O)c(OCc4ccccc4)cc3OC21` (stereo not given), the EC50 is 3.6 µM in the assay with CCRF-CEM [3]; 1.3 µM with CCRF-CEM [4]; “Not Active” with CCRF-CEM [5]; “Not Active” in the assay on CCRF-CEM [6]; “Not Active” in the assay with CCRF-CEM [7]; “Not Active” in the assay on CCRF-CEM [8]. Further, the 50% effective concentration (EC50) in the assay with CCRF-CEM [9] is 1.21 µM; in the assay on CCRF-CEM [10], “Not Active”; in the assay on CCRF-CEM [11], “Not Active”. The IC50 with CCRF-CEM [9] amounted to 40.5 µM.

For `COc1ccc2c(c1)OCC1c3cc(O)c(OC)cc3OC21` (stereo not given), in the assay on CCRF-CEM [2], the EC50 result was “Not Active” and the IC50 result is given as “Not Active”.

Turning to `Oc1cc2c(cc1OCc1ccccc1)OC1c3ccccc3OCC21` (stereo not given), in the assay with CCRF-CEM [2], the half-maximal effective concentration (EC50) result is given as “Not Active” and the IC50 result was “Not Active”.
